Columns and labels:
Type in all cases: cell-based, Streptomyces coelicolor
[1] = tested on: S. coelicolor LAG2; test: LC-MS analysis of peptidoglycan precursors, including time course after alanine addition
Description: In order to get more insights into the synthesis of vancomycin-sensitive (i.e., wild-type) or the alternate vancomycin-resistant peptidoglycan, the pool of peptidoglycan precursors was analyzed by Liquid Chromatography coupled to Mass Spectrometry (LC-MS). When cells produce wild-type PG, only the MurNac-pentapeptide with a D-Ala-D-Ala terminus are detected, while vancomycin-resistant PG precursors have a D-Ala-D-Lac terminus. To analyze the precursors produced in S. coelicolor M145 and its mutant derivatives LAG1 (Δddl) and LAG2 (Δddl vanS::IS466A) in the presence or absence of vancomycin, the strains were grown until exponential phase, after which the cultures were harvested, washed and the precursors extracted with 5% TCA. The supernatants were desalted, concentrated and analyzed by LC-MS (see Materials and Methods section).
(§1) To investigate what the effect would be of the addition of excess of D-Ala on the accumulation of wild-type precursors, a time-course experiment was performed to follow the effect of D-Ala addition on the ratio between wild-type and resistant precursors. Therefore, 300 ml liquid-grown NMMP cultures were supplemented with either D-Ala or L-Ala (control) at 50 mM end concentration, and 10 ml samples were collected prior to and 1, 5, 15, 30, 60, 120 and 180 minutes after the addition of either alanine stereoisomer. Samples were immediately filtered by vacuum filtration, washed in 0.9% NaCl, biomass scraped off the filter, added to a tube containing 5% TCA and samples prepared as described above. […] However, addition of 50 mM D-Ala triggered the production of small amounts of wt precursor (1%) within 1 minute. After 15 minutes, this amount had increased to 4%, which appeared to be close to the maximum, with levels of wt precursors never exceeding 5%.
(§2) For the precursor isolation and identification, a modification of the method described previously by Hong and colleagues (Hong et al., 2004) was used. 10 μg vancomycin was added to the strains at the moment of inoculation. The strains were grown in NMMP (1% (w/v) Mannitol, 50 mM MgCl2) until mid-log phase (OD-0.3-0.4) and mycelia were harvested by centrifugation at 4° C. and washed in 0.9% NaCl. The mycelium was extracted with 5% cold trichloric acid (TCA) for 30 minutes at 4° C. This was centrifuged and the supernatant desalted on a Sephadex G-25 column (Illustra NAP-10 Columns, GE Healthcare, Pittsburgh), and concentrated by rotary evaporation. The concentrated precursors were dissolved in HPLC-grade water and separated by LC-MS using a gradient of 0-20% acetonitrile in water with 0.1% TFA. The elution was monitored at 254 nm and monitored by the sizes eluted (1193.8-1195.3).
For the measurement over time, the protocol was adjusted in the following way: 300 ml NMMP cultures were grown until exponential phase, at which point a 10 ml sample was taken (sample t=0) and 50 mM of D-Ala or L-Ala was added, followed by further sampling after 1, 5, 15, 30, 60, 120 and 180 minutes. Samples were rapidly filtered with a vacuum pump and washed with 0.9% (w/v) NaCl, mycelia scraped off the filter and transferred to 5% TCA.

[2] = tested on: S. coelicolor LAG4 (LAG2 ΔvanX); test: LC-MS analysis of peptidoglycan precursors, time course after D-Ala addition
Description: as §1
as §2, with “(1193.8-1195.3). […]” for “(1193.8-1195.3).”

[3] = tested on: S. coelicolor M145 ΔvanX (LAG3); test: MIC of vancomycin on MM agar plates with added D-Ala; conditions: M145 ΔvanX, 1000-fold lower D-Ala concentration than for M145
Text: VanX effectively eradicates the D-Ala-D-Ala dipeptide, thereby counteracting the accumulation of wild-type precursors and supporting vancomycin resistance (Lessard and Walsh, 1999; Tan et al., 2002). Therefore, a vanX null mutant was created using a similar strategy as for ddl, replacing the coding region of vanX by the apramycin resistance cassette aacC4. The mutant was created in both the parental strain S. coelicolor M145 and in its ddl suppressor mutant LAG2, generating LAG3 (M145 ΔvanX) and LAG4 (M145 Δddl ΔvanX vanS::IS466A), respectively.
LAG4 produced 20% wt precursors prior to the addition of D-Ala.
(§3) Escherichia coli strains JM109 (Sambrook et al., 1989) and ET12567 (Kieser et al., 2000) were used for routine cloning procedures and for extracting non-methylated DNA, respectively. Cells of E. coli were grown in Luria-Berani broth (LB) at 37° C. Streptomyces coelicolor A3(2) M145 was the parent of all mutants described in this work. All media and routine Streptomyces techniques were carried out as described (Kieser et al., 2000). SFM (soy flour mannitol) agar plates were used for propagating S. coelicolor strains and to prepare spore suspensions. For liquid-grown cultures, S. coelicolor mycelia were grown in normal minimal media with phosphate (NMMP) supplemented with 1% (w/v) mannitol as the sole carbon source. The MIC of vancomycin against S. coelicolor M145 and its mutant derivatives were determined by growth on minimal media (MM) agar plates supplemented with 1% mannitol as the sole carbon source, and 0, 2, 4, 8, 16, 32, 64, 128, 256 or 512 μg/ml vancomycin, in combination with 0, 1, 5, 10 or 50 mM of D-Ala or L-Ala. The vanX deletion mutants have been tested with 1, 5, 10, 50 and 100 μM D-Ala and L-Ala.

[4] = tested on: S. coelicolor LAG2 (ddl suppressor mutant); test: MIC of vancomycin on MM agar plates with added D-Ala or L-Ala; conditions: LAG2, L-Ala (control)
Description: VanS is the sensory kinase of a two-component system formed with VanR, and it has been shown previously that certain mutations in vanS will constitutively upregulate the vancomycin resistance cluster, explaining the viability of strain LAG2 in the absence of vancomycin.
as §3

[5] = tested on: S. coelicolor M145; test: as above; conditions: M145, up to 50 mg/ml L-Ala (control)
Description: The naturally vancomycin-resistant model organism S. coelicolor M145 was used as the initial test system. The strain was grown on solid minimal medium (MM) agar plates with increasing amounts of D-Ala and vancomycin. D-Ala was thereby added in concentrations of 5, 10 and 50 mM and the effect on the MIC of vancomycin assessed. As a first control, L-Ala was added and, as a second control, no amino acids were added. […] This was not altered when the culture media were supplemented with up to 50 mg/ml L-Ala (Table 1 and FIG. 6).
as §3

Row | Structure (SMILES) | wt precursor ([1]; LAG2, 50 mM D-Ala, after 15 minutes) [%] | wt precursor, maximum level ([1]; LAG2, 50 mM D-Ala, up to 180 minutes) [%] | wt precursor ([1]; LAG2, 50 mM D-Ala, within 1 minute) [%] | wild-type precursor ([2]; LAG4, 3 hours after addition of D-Ala) [%] | wild-type precursor ([2]; LAG4, after addition of D-Ala, 1 and 5 minutes) [%] | wild-type precursor ([2]; LAG4, after addition of D-Ala, 15-30 minutes) [%] | stronger reduction of the MIC of vancomycin as compared to M145 [3] [fold] | effect of L-Ala on the MIC for vancomycin [4] | production of wt precursors ([1]; LAG2, 50 mM L-Ala (control)) | effect of L-Ala on the MIC of vancomycin [5]
1 | C[C@@H](N)C(=O)O [D-Ala, D-alanine] | 4 | ≤ 5 | 1 | 80 | 25 | 40 | 4 | – | – | –
2 | C[C@H](N)C(=O)O [L-Ala] | – | – | – | – | – | – | – | did not affect the MIC | did not activate the production of detectable levels | not altered

Source: patent US20190000789A1, “COMPOSITION AND METHOD FOR TREATING INFECTIONS CAUSED BY VANCOMYCIN-RESISTANT INFECTIOUS AGENTS IN A SUBJECT” (priority 2015, published 2019)
